Numbers after ± are expanded uncertainties.
How the values were obtained:
[1] = Crystal; for mass density: 298 K, 101.33 kPa, Pycnometric method; for Triple point temperature: DTA
[2] = Molar enthalpy of transition or fusion; conditions: Crystal; DSC
[3] = molar heat capacity at constant pressure; conditions: 298 K; 101.33 kPa; Crystal; Small sample (50 mg) DSC

Row | mass density [1] [kg/m3] | Triple point temperature [1] [K] | Molar enthalpy of transition or fusion [2] [kJ/mol] | molar heat capacity at constant pressure [3] [J/K/mol] | SMILES
1 | 1170 ± 10 | 371.47 ± 0.39 | 24.1 ± 0.83 | 222.5 ± 4.5 | CC(C)c1ccc2occ(C=O)c(=O)c2c1 [3-formyl-6-isopropylchromone]
2 | 1470 ± 10 | 444.45 ± 0.39 | 26.8 ± 0.79 | 178.96 ± 3.6 | Cc1ccc2occ(C=O)c(=O)c2c1 [3-formyl-6-methylchromone]
3 | 1700 ± 10 | 424.89 ± 0.39 | 25.4 ± 0.57 | 121.04 ± 2.4 | O=Cc1coc2ccccc2c1=O [3-formylchromone]
